Data taken from ChEMBL document CHEMBL5260810, “Inhibition of bromodomain-containing protein 9 for the prevention of epigenetically-defined drug resistance” (Bioorg Med Chem Lett, 2017).

How the values were obtained:
[1] = Cytotoxicity against human HS-Sultan cells measured after 8 days; format: functional, cell-based; details: 192 h
NCI-H146 = test: Cytotoxicity against human NCI-H146 cells measured after 8 days; format: functional, cell-based; details: NCI-H146, 192 h
LCLC-103H cell line = test: Cytotoxicity against human LCLC-103H cell line measured after 8 days; format: functional, cell-based; details: 192 h
OCI-AML-5 = test: Cytotoxicity against human OCI-AML5 cells measured after 8 days; format: functional, cell-based; details: OCI-AML-5, 192 h
NCI-H1975 = test: Cytotoxicity against human NCI-H1975 cells measured after 8 days; format: functional, cell-based; details: NCI-H1975, 192 h
SKM-1 = test: Cytotoxicity against human SKM-1 cells measured after 8 days; format: functional, cell-based; details: SKM-1, 192 h
[2] = Cytotoxicity against human EB1 cells measured after 8 days; format: functional, cell-based; details: EB1, 192 h
JeKo-1 = test: Cytotoxicity against human JeKo-1 cells measured after 8 days; format: functional, cell-based; details: JeKo-1, 192 h
HEY = test: Cytotoxicity against human HEY cells measured after 8 days; format: functional, cell-based; details: 192 h
[3] = Cytotoxicity against human OVCA429 cells measured after 8 days; format: functional, cell-based; details: OVCA429, 192 h
MCF7 = test: Cytotoxicity against human MCF7 cells measured after 8 days; format: functional, cell-based; details: MCF7, 192 h
PA-1 = test: Cytotoxicity against human PA-1 cells measured after 8 days; format: functional, cell-based; details: PA-1, 192 h
LS-1034 = test: Cytotoxicity against human LS1034 cells measured after 8 days; format: functional, cell-based; details: LS-1034, 192 h
GP5d = test: Cytotoxicity against human GP5d cells measured after 8 days; format: functional, cell-based; details: 192 h
LNCaP = test: Cytotoxicity against human LNCaP clone FGC cells measured after 8 days; format: functional, cell-based; details: 192 h
[4] = Cytotoxicity against human SK-MEL-23 cells measured after 8 days; format: functional, cell-based; details: SK-MEL-23, 192 h
HOP-92 = test: Cytotoxicity against human HOP-92 cells measured after 8 days; format: functional, cell-based; details: HOP-92, 192 h
[5] = molecular target: Bromodomain adjacent to zinc finger domain protein 2A (Homo sapiens, UniProt Q9UIF9); test: Binding affinity to human partial length BAZ2A (M1792 to L1905 residues) expressed in bacterial expression system by BROMOscan assay
[6] = molecular target: Bromodomain adjacent to zinc finger domain protein 2B (Homo sapiens, UniProt Q9UIF8); test: Binding affinity to human partial length BAZ2B (S2054 to S2168 residues) expressed in bacterial expression system by BROMOscan assay
[7] = molecular target: Bromodomain testis-specific protein (Homo sapiens, UniProt Q58F21); test: Binding affinity to human partial length BRDT bromodomain 2 (K250 to E382 residues) expressed in bacterial expression system by BROMOscan assay
[8] = molecular target: T1, Transcription intermediary factor 1-alpha (Homo sapiens, UniProt O15164); test: Binding affinity to human partial length TRIM24 (P790 to P977 residues) expressed in bacterial expression system by BROMOscan assay
T1 sequence (O15164 whole entry): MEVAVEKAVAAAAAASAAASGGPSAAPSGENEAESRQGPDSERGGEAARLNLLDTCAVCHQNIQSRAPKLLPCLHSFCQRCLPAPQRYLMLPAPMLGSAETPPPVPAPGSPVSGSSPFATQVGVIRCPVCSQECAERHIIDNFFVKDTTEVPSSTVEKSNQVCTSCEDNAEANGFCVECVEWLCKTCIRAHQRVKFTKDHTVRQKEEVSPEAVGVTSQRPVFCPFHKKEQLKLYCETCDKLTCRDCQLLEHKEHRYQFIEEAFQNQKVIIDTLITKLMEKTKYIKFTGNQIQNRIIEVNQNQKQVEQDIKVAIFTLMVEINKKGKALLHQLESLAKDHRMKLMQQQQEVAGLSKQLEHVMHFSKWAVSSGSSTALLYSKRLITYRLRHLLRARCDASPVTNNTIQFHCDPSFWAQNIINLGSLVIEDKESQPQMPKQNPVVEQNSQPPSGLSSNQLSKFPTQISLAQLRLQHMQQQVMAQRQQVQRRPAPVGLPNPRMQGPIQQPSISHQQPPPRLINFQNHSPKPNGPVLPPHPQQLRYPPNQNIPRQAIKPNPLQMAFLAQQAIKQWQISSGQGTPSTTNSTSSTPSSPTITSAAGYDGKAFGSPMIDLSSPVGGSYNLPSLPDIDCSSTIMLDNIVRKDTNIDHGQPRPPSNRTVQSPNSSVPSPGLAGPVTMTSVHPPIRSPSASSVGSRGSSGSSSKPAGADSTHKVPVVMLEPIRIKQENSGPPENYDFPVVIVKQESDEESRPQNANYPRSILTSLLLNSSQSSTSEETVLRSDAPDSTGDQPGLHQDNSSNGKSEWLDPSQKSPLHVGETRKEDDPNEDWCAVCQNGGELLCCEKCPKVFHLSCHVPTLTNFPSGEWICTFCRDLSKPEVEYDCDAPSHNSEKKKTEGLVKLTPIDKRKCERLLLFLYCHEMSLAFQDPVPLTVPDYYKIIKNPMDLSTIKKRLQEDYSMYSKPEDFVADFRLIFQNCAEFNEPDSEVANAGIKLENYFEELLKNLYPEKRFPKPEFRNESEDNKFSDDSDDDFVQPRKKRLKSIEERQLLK

[9] = molecular target: Cyclin-dependent kinase 5/CDK5 activator 1 (Homo sapiens) (UniProt Q00535+Q15078); test: Inhibition of CDK5/p25 (unknown origin) at 1 uM relative to control; format: protein-complex assay
[10] = molecular target: T2, Serine/threonine-protein kinase Chk1 (Homo sapiens) (UniProt O14757); test: Inhibition of CHK1 (unknown origin) at 1 uM relative to control
T2 sequence (whole entry): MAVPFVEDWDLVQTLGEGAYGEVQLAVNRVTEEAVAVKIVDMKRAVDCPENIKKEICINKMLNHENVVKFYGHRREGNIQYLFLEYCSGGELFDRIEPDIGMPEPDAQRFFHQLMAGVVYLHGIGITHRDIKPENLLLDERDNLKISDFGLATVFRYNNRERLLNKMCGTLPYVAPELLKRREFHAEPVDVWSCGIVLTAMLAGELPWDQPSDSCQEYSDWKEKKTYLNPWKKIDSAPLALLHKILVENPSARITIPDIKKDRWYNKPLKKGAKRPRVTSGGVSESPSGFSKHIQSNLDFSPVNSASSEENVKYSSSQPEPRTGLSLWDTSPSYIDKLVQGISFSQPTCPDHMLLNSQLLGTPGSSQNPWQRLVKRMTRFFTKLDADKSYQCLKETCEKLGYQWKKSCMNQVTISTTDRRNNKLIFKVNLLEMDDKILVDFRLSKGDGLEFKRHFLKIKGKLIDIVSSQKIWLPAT

[11] = molecular target: Serine/threonine-protein kinase 24 (Homo sapiens) (UniProt Q9Y6E0); test: Inhibition of MST3 (unknown origin) at 1 uM relative to control
[12] = molecular target: Kappa-type opioid receptor (Homo sapiens) (UniProt P41145); test: Displacement of [3H]U69593 from human kappa receptor at 10 uM after 60 mins by scintillation counting analysis relative to control
Homo sapiens = organism: Homo sapiens; test: Displacement of [3H] Dofetilide from human potassium channel at 10 uM relative to control

Chain of Kappa-type opioid receptor (Homo sapiens) (P41145 whole entry): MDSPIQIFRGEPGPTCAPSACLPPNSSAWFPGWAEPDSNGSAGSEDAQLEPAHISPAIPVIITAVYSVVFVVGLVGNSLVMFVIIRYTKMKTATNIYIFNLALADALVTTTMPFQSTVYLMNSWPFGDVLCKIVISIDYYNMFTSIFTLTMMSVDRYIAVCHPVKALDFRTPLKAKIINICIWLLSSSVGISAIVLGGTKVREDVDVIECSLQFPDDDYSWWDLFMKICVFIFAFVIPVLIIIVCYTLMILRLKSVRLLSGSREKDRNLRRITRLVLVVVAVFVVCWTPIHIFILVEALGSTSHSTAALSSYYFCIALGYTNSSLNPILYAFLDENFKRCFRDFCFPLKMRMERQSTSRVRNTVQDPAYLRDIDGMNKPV
Chain of Bromodomain adjacent to zinc finger domain protein 2B (Q9UIF8 whole entry, the tested form may be a part): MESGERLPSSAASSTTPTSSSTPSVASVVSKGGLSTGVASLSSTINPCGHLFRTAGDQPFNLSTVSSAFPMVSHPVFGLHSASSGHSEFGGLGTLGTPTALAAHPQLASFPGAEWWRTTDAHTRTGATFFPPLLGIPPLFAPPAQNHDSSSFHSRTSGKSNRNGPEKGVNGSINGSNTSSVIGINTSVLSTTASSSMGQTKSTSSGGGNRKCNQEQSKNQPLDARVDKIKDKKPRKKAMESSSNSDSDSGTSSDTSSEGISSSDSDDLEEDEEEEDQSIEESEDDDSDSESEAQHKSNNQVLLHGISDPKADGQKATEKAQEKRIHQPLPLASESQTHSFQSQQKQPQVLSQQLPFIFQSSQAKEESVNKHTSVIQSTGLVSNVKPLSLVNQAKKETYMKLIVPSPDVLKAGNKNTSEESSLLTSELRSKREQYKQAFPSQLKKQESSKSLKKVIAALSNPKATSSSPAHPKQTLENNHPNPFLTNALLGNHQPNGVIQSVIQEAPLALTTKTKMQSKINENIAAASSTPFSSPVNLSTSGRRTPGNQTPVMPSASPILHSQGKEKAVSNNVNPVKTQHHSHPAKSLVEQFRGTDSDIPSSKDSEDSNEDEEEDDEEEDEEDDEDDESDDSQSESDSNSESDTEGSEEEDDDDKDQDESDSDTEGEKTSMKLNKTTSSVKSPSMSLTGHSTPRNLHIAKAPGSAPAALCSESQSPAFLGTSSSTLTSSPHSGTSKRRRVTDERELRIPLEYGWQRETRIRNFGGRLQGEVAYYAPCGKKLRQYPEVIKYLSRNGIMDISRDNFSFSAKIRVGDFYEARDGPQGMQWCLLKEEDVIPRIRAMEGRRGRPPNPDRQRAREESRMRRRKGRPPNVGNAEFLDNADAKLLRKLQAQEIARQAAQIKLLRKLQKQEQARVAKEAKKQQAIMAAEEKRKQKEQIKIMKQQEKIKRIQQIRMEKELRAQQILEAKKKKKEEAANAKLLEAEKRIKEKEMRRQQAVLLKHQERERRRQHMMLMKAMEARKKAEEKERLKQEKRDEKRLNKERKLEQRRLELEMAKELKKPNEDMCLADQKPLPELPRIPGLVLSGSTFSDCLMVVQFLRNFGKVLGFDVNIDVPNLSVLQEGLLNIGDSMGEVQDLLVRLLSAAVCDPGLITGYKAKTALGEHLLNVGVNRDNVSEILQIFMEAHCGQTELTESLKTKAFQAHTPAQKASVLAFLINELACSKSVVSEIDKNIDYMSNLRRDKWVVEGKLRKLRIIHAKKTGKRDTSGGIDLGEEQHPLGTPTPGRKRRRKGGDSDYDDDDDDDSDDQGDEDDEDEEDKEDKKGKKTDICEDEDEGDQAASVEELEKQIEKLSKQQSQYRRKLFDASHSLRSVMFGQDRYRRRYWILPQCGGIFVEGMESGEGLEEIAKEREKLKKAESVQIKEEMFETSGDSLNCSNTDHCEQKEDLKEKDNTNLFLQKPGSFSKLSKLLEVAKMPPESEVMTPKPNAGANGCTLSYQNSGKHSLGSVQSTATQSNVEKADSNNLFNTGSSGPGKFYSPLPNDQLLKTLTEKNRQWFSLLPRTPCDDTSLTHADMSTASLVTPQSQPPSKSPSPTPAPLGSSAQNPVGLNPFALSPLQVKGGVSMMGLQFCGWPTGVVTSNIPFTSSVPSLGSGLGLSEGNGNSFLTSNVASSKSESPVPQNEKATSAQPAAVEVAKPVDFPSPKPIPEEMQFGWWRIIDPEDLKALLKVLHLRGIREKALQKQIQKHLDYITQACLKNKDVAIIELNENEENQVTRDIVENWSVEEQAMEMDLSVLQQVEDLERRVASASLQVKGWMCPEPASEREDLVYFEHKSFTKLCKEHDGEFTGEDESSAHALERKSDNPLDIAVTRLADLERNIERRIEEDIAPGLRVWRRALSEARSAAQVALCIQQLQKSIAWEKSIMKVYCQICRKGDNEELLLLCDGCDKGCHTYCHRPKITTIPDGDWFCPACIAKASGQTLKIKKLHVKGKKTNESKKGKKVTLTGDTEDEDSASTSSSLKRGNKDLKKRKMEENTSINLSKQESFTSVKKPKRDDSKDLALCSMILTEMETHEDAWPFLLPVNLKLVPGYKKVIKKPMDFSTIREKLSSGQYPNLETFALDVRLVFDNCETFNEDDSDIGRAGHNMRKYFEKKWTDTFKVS
Chain of Serine/threonine-protein kinase 24 (Homo sapiens) (Q9Y6E0 whole entry, looked up): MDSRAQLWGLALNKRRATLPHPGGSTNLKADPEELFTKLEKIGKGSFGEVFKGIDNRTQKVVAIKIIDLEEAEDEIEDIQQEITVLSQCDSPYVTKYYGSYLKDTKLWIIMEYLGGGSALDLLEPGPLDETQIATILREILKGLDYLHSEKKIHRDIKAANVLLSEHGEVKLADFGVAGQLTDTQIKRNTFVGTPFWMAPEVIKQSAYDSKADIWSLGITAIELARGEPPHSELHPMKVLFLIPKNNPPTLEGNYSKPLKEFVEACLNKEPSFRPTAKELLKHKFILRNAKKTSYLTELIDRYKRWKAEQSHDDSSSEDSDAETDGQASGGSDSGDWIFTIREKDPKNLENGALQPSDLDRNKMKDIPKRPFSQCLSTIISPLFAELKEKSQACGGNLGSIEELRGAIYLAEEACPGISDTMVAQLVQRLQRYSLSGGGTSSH
Chain of Cyclin-dependent kinase 5/CDK5 activator 1 (Homo sapiens) (Q00535 whole entry): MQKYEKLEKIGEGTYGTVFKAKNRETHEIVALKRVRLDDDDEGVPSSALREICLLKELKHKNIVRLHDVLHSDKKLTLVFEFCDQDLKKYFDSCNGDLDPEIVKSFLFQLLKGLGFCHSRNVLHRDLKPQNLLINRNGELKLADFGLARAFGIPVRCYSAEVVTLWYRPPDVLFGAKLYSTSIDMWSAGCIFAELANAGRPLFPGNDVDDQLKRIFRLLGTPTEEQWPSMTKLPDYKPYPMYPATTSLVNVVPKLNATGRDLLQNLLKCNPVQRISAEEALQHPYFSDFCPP
Chain of Cyclin-dependent kinase 5/CDK5 activator 1 (Homo sapiens) (Q15078 99-307 partner limits assumed): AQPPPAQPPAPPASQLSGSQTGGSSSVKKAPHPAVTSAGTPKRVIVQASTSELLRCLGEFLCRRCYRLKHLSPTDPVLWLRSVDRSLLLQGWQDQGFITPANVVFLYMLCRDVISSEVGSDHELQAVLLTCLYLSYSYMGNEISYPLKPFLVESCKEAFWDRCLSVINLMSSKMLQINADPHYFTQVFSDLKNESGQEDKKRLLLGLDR

## C/C=C/Cn1cc(-c2ccc(C(=O)N3CCOCC3)cc2)c2cc[nH]c2c1=O
[1]
  IC50: 20 µM
NCI-H146
  IC50: 20 µM
LCLC-103H cell line
  IC50: 20 µM
OCI-AML-5
  IC50: 20 µM
NCI-H1975
  IC50: 20 µM
SKM-1
  IC50: 13.9 µM
[2]
  IC50: 20 µM
JeKo-1
  IC50: 9.95 µM
HEY
  IC50: 20 µM
[3]
  IC50: 20 µM
MCF7
  IC50: 20 µM
PA-1
  IC50: 20 µM
LS-1034
  IC50: 20 µM
GP5d
  IC50: 20 µM
LNCaP
  IC50: 16.5 µM
[4]
  IC50: 20 µM
HOP-92
  IC50: 20 µM
[5]
  Kd: > 10 µM
[6]
  Kd: > 10 µM
[7]
  Kd: 3.5 µM
[8]
  Kd: 26 µM
[9]
  inhibition: -1.5%
[10]
  inhibition: 3.4%
[11]
  inhibition: -2.5%
[12]
  Activity: 6%
Homo sapiens
  Activity: 13%

## C/C=C/Cn1cc(-c2ccc(C(C)(C)O)cc2OC)c2cc[nH]c2c1=O
[1]
  IC50: 20 µM
NCI-H146
  IC50: 20 µM
LCLC-103H cell line
  IC50: 20 µM
OCI-AML-5
  IC50: 20 µM
NCI-H1975
  IC50: 20 µM
SKM-1
  IC50: 20 µM
[2]
  IC50: 20 µM
JeKo-1
  IC50: 10.8 µM
HEY
  IC50: 20 µM
[3]
  IC50: 20 µM
MCF7
  IC50: 20 µM
PA-1
  IC50: 16.4 µM
LS-1034
  IC50: 20 µM
GP5d
  IC50: 20 µM
LNCaP
  IC50: 19.9 µM
[4]
  IC50: 20 µM
HOP-92
  IC50: 20 µM
[5]
  Kd: > 10 µM
[6]
  Kd: > 10 µM
[7]
  Kd: 2.6 µM
[8]
  Kd: > 10 µM
[9]
  inhibition: -0.5%
[10]
  inhibition: 7%
[11]
  inhibition: 6%
[12]
  Activity: -1%
Homo sapiens
  Activity: -5%

## C/C=C/Cn1cc(-c2cc(OC)c(C(=O)N3CCOCC3)cc2OC)c2cc(C)[nH]c2c1=O
[1]
  IC50: 2 µM
NCI-H146
  IC50: 2 µM
LCLC-103H cell line
  IC50: 2 µM
OCI-AML-5
  IC50: 2 µM
NCI-H1975
  IC50: 2 µM
SKM-1
  IC50: 2 µM
[2]
  IC50: 2 µM
JeKo-1
  IC50: 2 µM
HEY
  IC50: 2 µM
[3]
  IC50: 1.77 µM
MCF7
  IC50: 1.34 µM
PA-1
  IC50: 2 µM
LS-1034
  IC50: 2 µM
GP5d
  IC50: 2 µM
LNCaP
  IC50: 2 µM
[4]
  IC50: 2 µM
HOP-92
  IC50: 2 µM
[5]
  Kd: > 10 µM
[6]
  Kd: > 10 µM
[7]
  Kd: > 10 µM
[8]
  Kd: > 10 µM
[9]
  inhibition: 0%
[10]
  inhibition: -7.5%
[11]
  inhibition: 7%
[12]
  Activity: 8%
Homo sapiens
  Activity: 18%

## C/C=C/Cn1cc(-c2cc(OC)c(C(C)(C)O)cc2OC)c2cc(C)[nH]c2c1=O
[5]
  Kd: > 10 µM
[6]
  Kd: > 10 µM
[7]
  Kd: 6.6 µM
[8]
  Kd: > 10 µM
